Article PMC3810134, “Substrate and Inhibitor Specificity of the Type II p21-Activated Kinase, PAK6” (PLoS ONE, 2013)
Read-outs that look alike come from different tables or passages of the source. Blank lines part the entries; values can stand above or below the molecule they belong to. No end group written: not given here.

Legend:
human clinical trials = details: ref [22]; cited from earlier work
Excerpt: (§1) ATP-competitive small molecule inhibitors of the type II PAKs could be useful as cancer therapeutics. […] Sunitinib (SU11248) is a potent ATP-competitive multi-kinase inhibitor that is indicated for treatment of renal cell carcinoma, imatinib-resistant gastrointestinal stromal tumors, advanced pancreatic neuroendocrine tumors and other tumor types [ ...

mouse models of cancer = details: ref [22]; cited from earlier work
Excerpt: as §1

[1] = test system: type II PAKs and also PAK1; details: each of the type II PAKs and also PAK1; ref [22]; cited from earlier work
Excerpt: as §1

[2] = target: T1, PAK6 catalytic domain (residues 383–674) (Homo sapiens, UniProt Q9NQU5); experiment: In vitro PAK6 kinase assay (trans-inhibition by peptides, MBP substrate, radioactive); type: biochemical
T1 construct: recombinant PAK6 catalytic domain (residues 383–674) purified as described above; 6xHis (N, cleaved yes); made in house; host or cells: E. coli BL21(DE3)
Protocol: Catalytic domain residues 383–674 of PAK6 (UniProt Q9NQU5) were amplified from cDNA (Open Biosystems) then subcloned into a modified pET-32 vector with an N-terminal 6xHis tag cleavable by TEV protease. A single colony of transformed E. coli BL21(DE3) was grown in Luria-Bertani (LB) medium at 37°C for 7 hours with kanamycin sulfate (100 µg/ml). Then the fresh culture was inoculated (1∶100) into in LB supplemented with kanamycin sulfate (100 µg/ml). Protein expression was induced at an A 600 of 0.4 by addition of 0.3 mM isopropyl-thio-galactopyranoside (IPTG) at 18°C for 14 hr. Cells were harvested and then resuspended in lysis buffer (50 mM HEPES pH 7.5, 500 mM NaCl, 0.5 mM TCEP, and 1 mM PMSF). Lysozyme and DNAse-I were added and the mixture was incubated on ice before three cycles of flash-freezing in a dry ice and ethanol mixture and thawing at 4°C. Following sonication and centrifugation, the supernatant was collected and loaded onto a nickel sepharose column equilibrated with 100 ml binding buffer (50 mM HEPES pH 7.5, 500 mM NaCl, 5 mM imidazole, 0.5 mM TCEP, 5% glycerol). Contaminating proteins were washed away with 200 ml wash buffer (50 mM HEPES pH 7.5, 500 mM NaCl, 30 mM imidazole, 0.5 mM TCEP, 5% glycerol). PAK6 catalytic domain was eluted with an imidazole step gradient and identified by SDS-PAGE. Overnight TEV cleavage was performed by adding TEV protease and dialyzing the mixture against size exclusion buffer (50 mM Tris pH 8, 250 mM NaCl, 5 mM TCEP). PAK6 catalytic domain was then reloaded onto the nickel sepharose column to remove remaining uncleaved protein. The sample then was loaded onto a Superdex 75 16/60 gel-filtration column equilibrated with size exclusion buffer.
Kinase activity was assessed using a radioactive assay with myelin basic protein (MBP) as substrate. […] Kinase assays were performed by adding 150 nM of PAK6, 2 µM of MBP as the substrate, 50 µM of cold-ATP and 0.1 µCi of hot [γ-^33P] ATP in Tris buffer (20 mM Tris-HCl pH 8.0, 0.15 M NaCl, 1 mM DTT and 10 mM MgCl2) for a total volume of 25 µl. […] Control peptide ([…]) was purchased from Anaspec and inhibition assays were performed using between 0.5 mM and 4.5 mM of peptide. The reaction was conducted at 30°C for 10 min and stopped by addition of 5X sample buffer and analyzed by SDS-PAGE. Gels were analyzed by exposure to phosphor storage screen (GE) followed by scanning using a Molecular Imager FX Pro Plus System (Bio-Rad) and quantification by optical densitometry Quantity One (Bio-Rad). Relative activities were compared to those measured for PAK6. Measurements were calculated from at least three independent experiments.

type II PAKs = details: range over the family, ref [41], read-out: Ki (estimated range); cited from earlier work
Excerpt: (§2) Therefore understanding how sunitinib binds to the type II PAKs may represent a starting point for future small molecule drug discovery. There are currently 6 co-crystal structures of protein kinases in complex with sunitinib deposited in the PDB. These kinases are of VEGFR (4AGD), KIT (3G0E), KIT-D816H mutation (3G0F), ITK (3MIY), CDK2 (3TI1) and phosphorylase kin ...

PAK kinases = details: ref [41], cited from earlier work
Excerpt: as §2

[3] = 150 nM PAK6, 2 µM MBP, 50 µM cold-ATP, [γ-33P] ATP, 20 mM Tris-HCl pH 8.0, 0.15 M NaCl, 1 mM DTT, 10 mM MgCl2, 30°C, 10 min, SDS-PAGE/phosphor storage screen, 3 independent experiments, tested wild-type 0.06-5.85 mM, P52L 1.8-5.85 mM, control 0.5-4.5 mM, read-out: IC50 (inhibition of PAK6 kinase activity)
[4] = 95% confidence interval of the IC50, 3 independent experiments, read-out: 95% confidence (of IC50)

T1 sequence (Q9NQU5 383-674): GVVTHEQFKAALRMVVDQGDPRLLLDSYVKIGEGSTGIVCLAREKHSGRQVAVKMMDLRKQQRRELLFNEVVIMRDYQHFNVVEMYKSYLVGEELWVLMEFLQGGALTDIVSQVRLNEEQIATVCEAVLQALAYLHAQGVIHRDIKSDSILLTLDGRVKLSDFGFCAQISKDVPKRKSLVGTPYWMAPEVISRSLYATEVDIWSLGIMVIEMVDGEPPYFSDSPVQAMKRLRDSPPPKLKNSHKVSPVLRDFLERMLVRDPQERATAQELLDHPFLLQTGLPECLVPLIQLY

Molecule: Cc1nc(Nc2[nH]nc3c2CN(C(=O)N[C@H](CN(C)C)c2ccccc2)C3(C)C)c2sccc2n1 [PF-3758309]
outcome in human clinical trials (human clinical trials): failed in human clinical trials
efficacy in mouse models of cancer (mouse models of cancer): effective in mouse models of cancer
in vitro activity [1]: displays in vitro activity against each of the type II PAKs and also PAK1

IC50 [2, 3]: 600 µM
IC50 [2, 4]: 510 to 710 µM
Molecule: RRPKPVVDP [N-terminal peptide]

Molecule: CCN(CC)CCNC(=O)c1c(C)[nH]c(/C=C2\C(=O)Nc3ccc(F)cc32)c1C [Sunitinib]
Ki (type II PAKs): 0.5 to 7 µM
inhibition of the PAK kinases overall (PAK kinases): weak inhibitor
selectivity (PAK kinases; type II vs type I PAK family members): selectivity for type II over type I PAK family members

IC50 [2, 3]: 4200 µM
IC50 [2, 4]: 3800 to 4600 µM
Molecule: RRPKLVVDP [P52L mutant peptide]

Molecule: APRTPGGRR [control peptide]
IC50 [2]: 3000 to 15000 µM
